# Source: US4175081A, “5-Substituted thiadiazole ureas” (priority 1977, dated 1979)
# Key:
# [1] = system: Crabgrass (CG); assay: Pre-emergence herbicide test; type: in vivo, Digitaria sanquinalis; conditions: Digitaria sanguinalis, pre-emergence, 336 h, two weeks after treatment; for pest or weed control at 4483.4 g/ha: 4 lb/acre
# Summary of the method: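 Crabgrass (Digitaria sanquinalis) was surface seeded in 3' plastic pots of potting soil, covered with screened soil, and watered by sub-irrigation in greenhouse trays. Pots were seeded one day before spraying in a hood with a moving belt and fixed nozzle. Plants stayed in the greenhouse on sub-irrigation, and pre-emergence control was rated visually two weeks after treatment.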
# [2] = system: Johnson grass (JG); assay: Pre-emergence herbicide test; type: in vivo, Sorgum helepense; conditions: Sorghum halepense, 336 h, two weeks after treatment; for pest or weed control at 4483.4 g/ha: 4 lb/acre
# Summary of the method: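 Pots seeded one day before spraying; compound applied pre-emergence at 8 lbs/acre (or 4 lbs/acre) in 38 gallons/acre spray volume. Sub-irrigated in greenhouse; injury/control rated visually two weeks after treatment.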
# [3] = system: Amaranth pigweed (PW); assay: Pre-emergence herbicide test; type: in vivo, Amaranthus retroflexus; conditions: 336 h, two weeks after treatment; for pest or weed control at 4483.4 g/ha: 4 lb/acre
# Experimental: (§1) All crop and weed species were planted individually in 3' plastic pots containing potting soil. Four seeds each of corn, cotton, and snapbeans were seeded to a depth equal to the diameter of the seed. All other species were surface seeded and sprinkled with screened soil in an amount sufficient to cover the seed. Immediately after planting, all pots were watered by sub-irrigation in greenhouse trays. Pots for the pre-emergence phase were seeded one day before treatment.
# (§2) Compounds were tested at rates of application equivalent to 8 lbs. of actual compound per acre in a spray volume of 38 gallons per acre. Spray hood constants required to deliver the above volume are as follows:
# (§3) Formulations for spray applications were prepared in 50 ml volumes with the following three components:
# (§4) Formulations for the 4 lbs/acre rate were prepared by adjusting the amount of active ingredient accordingly.
# (§5) Spray applications were made in a hood containing a removable belt and fixed spray nozzle. For passage through the spray hood, one pot of each specie (pre-emergence phase) was placed on the rear half of the flat. Treatments were removed to the greenhouse after spraying. Watering during the observation period was done only by sub-irrigation.
# (§6) Two weeks after treatment, pre- and post-emergence injury or control was visually rated, and the results were as shown in the following tables. Pre-emergence data are provided in TABLE III and post-emergence data are provided in TABLE IV, for compounds having the formula illustrated in TABLE I. Correspondingly, pre-emergence and post-emergence data, respectively, are set forth in TABLES V AND VI, for compounds having the formula illustrated in TABLE II.
# [4] = system: Turnip (TP); assay: Pre-emergence herbicide test; type: in vivo, Brassica sp.; conditions: Brassica rapa, pre-emergence, 336 h, two weeks after treatment; for pest or weed control at 4483.4 g/ha: 4 lb/acre
# Summary of the method: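 Turnip (Brassica sp.) seeds were surface sown in 3' plastic pots of potting soil, covered with a thin layer of screened soil, and sub-irrigated in greenhouse trays. Pots were seeded one day ahead of treatment, sprayed pre-emergence under a hood with a fixed nozzle and moving belt, then kept in the greenhouse.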
# [5] = system: Cotton (CT); assay: Pre-emergence herbicide test; type: in vivo, Gossypium hirsutum var. DPL smooth leaf; conditions: Gossypium hirsutum, 336 h, two weeks after treatment; for pest or weed control at 4483.4 g/ha: 4 lb/acre
# Summary of the method: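 Crop and weed species seeded one day before treatment, then sprayed pre-emergence at 8 lbs actual compound per acre (also 4 lbs/acre formulations) in 38 gallons per acre. Pots kept in greenhouse with sub-irrigation only; injury or control visually rated two weeks after treatment.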
# [6] = system: Corn (CN); assay: Pre-emergence herbicide test; type: in vivo; conditions: Zea mays, 336 h, two weeks after treatment; for pest or weed control at 4483.4 g/ha: 4 lb/acre
# Summary of the method: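 Four corn seeds per pot, sown at seed-diameter depth one day before spraying, got soil surface treatment at 8 lbs/acre (4 lbs/acre formulations also prepared) in 38 gallons/acre. Pots were greenhouse-held with sub-irrigation only. Injury or control was scored visually two weeks after treatment.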
# [7] = system: Bean (BN); assay: Pre-emergence herbicide test; type: in vivo, Phaseolus vulgaris var. Black Valentine; conditions: Phaseolus vulgaris, 336 h, two weeks after treatment; for pest or weed control at 4483.4 g/ha: 4 lb/acre
# Summary of the method: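 Black Valentine bean was seeded in potting soil one day before spraying. Compound was applied pre-emergence at 8 lbs/acre (also 4 lbs/acre) in 38 gallons per acre. Plants were sub-irrigated and injury or control was rated visually after two weeks.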
# [8] = system: Crabgrass (CG); assay: Post-emergence herbicide test; type: in vivo, Digitaria sanquinalis; conditions: Digitaria sanguinalis, post-emergence, 336 h, two weeks after treatment; for pest or weed control at 4483.4 g/ha: 4 lb/acre
# Summary of the method: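 Crabgrass (Digitaria sanquinalis) was surface seeded individually in 3' plastic pots of potting soil, covered with screened soil, and watered by sub-irrigation in greenhouse trays. Planting was staggered so seedlings reached the target stage together. Post-emergence sprays were applied in a hood with a removable belt and fixed nozzle, and control was visually rated two weeks after treatment.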
# [9] = system: Johnson grass (JG); assay: Post-emergence herbicide test; type: in vivo, Sorgum helepense; conditions: Sorghum halepense, 336 h, 4 lb/acre, two weeks after treatment
# Summary of the method: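 Greenhouse pot-grown seedlings sprayed post-emergence at 8 lbs compound per acre (some at 4 lbs/acre) in 38 gallons per acre spray volume. Sub-irrigated thereafter. Injury/control rated visually two weeks after treatment.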
# [10] = system: Amaranth pigweed (PW); assay: Post-emergence herbicide test; type: in vivo, Amaranthus retroflexus; conditions: 336 h, 4 lb/acre, two weeks after treatment
# Experimental: Amaranth pigweed (PW)--Amaranthus retroflexus
# as §1
# Planting dates for the post-emergence phase were varied so that all seedlings would reach the desired stage of development simultaneously. The proper stage of seedling development for treatment in the post-emergence phase is as follows:
# Pigweed and turnips: 1 or 2 true leaves above visible cotyledons.
# as §2, §3, §4, §5, §6
# [11] = system: Turnip (TP); assay: Post-emergence herbicide test; type: in vivo, Brassica sp.; conditions: Brassica rapa, post-emergence, 336 h, two weeks after treatment; for pest or weed control at 4483.4 g/ha: 4 lb/acre
# Summary of the method: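 A greenhouse post-emergence herbicide test on turnip. Seeds were sown on the surface of potting soil in 3' plastic pots, lightly covered with screened soil and watered from below. Planting was timed so seedlings had 1 or 2 true leaves above the cotyledons at spraying, done in a hood with a fixed nozzle. Control or injury was scored by eye after two weeks.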
# [12] = system: Cotton (CT); assay: Post-emergence herbicide test; type: in vivo, Gossypium hirsutum var. DPL smooth leaf; conditions: Gossypium hirsutum, post-emergence, 336 h, two weeks after treatment; for pest or weed control at 4483.4 g/ha: 4 lb/acre
# Summary of the method: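 Cotton (Gossypium hirsutum var. DPL smooth leaf) was grown in 3' plastic pots of potting soil, four seeds per pot, planted at a depth equal to the seed diameter and watered by sub-irrigation. At the stage of expanded cotyledons with the first true leaf 1' long, plants were sprayed post-emergence in a hood with a fixed nozzle over a moving belt. Percent control was rated visually two weeks later.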
# [13] = system: Corn (CN); assay: Post-emergence herbicide test; type: in vivo; conditions: Zea mays, 336 h, 4 lb/acre, two weeks after treatment
# Summary of the method: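 Greenhouse seedlings grown in potting soil and sprayed post-emergence at 8 lbs compound/acre (formulations also made for 4 lbs/acre) in 38 gallons/acre spray volume. Watering by sub-irrigation only. Injury or control rated visually two weeks after treatment.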
# [14] = system: Bean (BN); assay: Post-emergence herbicide test; type: in vivo, Phaseolus vulgaris var. Black Valentine; conditions: Phaseolus vulgaris, post-emergence, 336 h, two weeks after treatment; for pest or weed control at 4483.4 g/ha: 4 lb/acre
# Summary of the method: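 Snapbean (Phaseolus vulgaris var. Black Valentine) was tested post-emergence. Four seeds were sown in 3' plastic pots of potting soil at a depth equal to the seed diameter, then sub-irrigated in greenhouse trays. Planting dates were staggered so plants were sprayed once primary leaves had expanded, with the growing point at the primary leaf nodes.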
# [15] = system: Barnyard grass (BG); assay: Pre-emergence herbicide test; type: in vivo; conditions: Echinochloa crus-galli, 336 h, two weeks after treatment; for pest or weed control at 4483.4 g/ha: 4 lb/acre
# Summary of the method: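 Barnyard grass surface-seeded in potting soil and sprayed pre-emergence one day after seeding, at 8 or 4 lb compound/acre in 38 gal/acre spray volume. Pots kept in greenhouse with sub-irrigation only; injury or control rated visually two weeks after treatment.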
smiles,measurement,setting,value
CCOC(=O)C(Sc1nnc(NC(=O)NC)s1)C(=O)OCC [Example 79],pest or weed control at 4483.4 g/ha,[1],20%
same,pest or weed control at 4483.4 g/ha,[2],20%
same,pest or weed control at 4483.4 g/ha,[3],0%
same,pest or weed control at 4483.4 g/ha,[4],20%
same,pest or weed control at 4483.4 g/ha,[5],50%
same,pest or weed control at 4483.4 g/ha,[6],20%
same,pest or weed control at 4483.4 g/ha,[7],90%
same,pest or weed control at 4483.4 g/ha,[8],30%
same,pest or weed control at 4483.4 g/ha,[9],30%
same,pest or weed control at 4483.4 g/ha,[10],40%
same,pest or weed control at 4483.4 g/ha,[11],40%
same,pest or weed control at 4483.4 g/ha,[12],90%
same,pest or weed control at 4483.4 g/ha,[13],40%
same,pest or weed control at 4483.4 g/ha,[14],60%
CNC(=O)Nc1nnc(SCC#N)s1 [Example 88],pest or weed control at 4483.4 g/ha,[1],10%
same,pest or weed control at 4483.4 g/ha,[2],10%
same,pest or weed control at 4483.4 g/ha,[15],10%
same,pest or weed control at 4483.4 g/ha,[3],10%
same,pest or weed control at 4483.4 g/ha,[4],70%
same,pest or weed control at 4483.4 g/ha,[5],50%
same,pest or weed control at 4483.4 g/ha,[6],10%
same,pest or weed control at 4483.4 g/ha,[7],100%
same,pest or weed control at 4483.4 g/ha,[8],20%
same,pest or weed control at 4483.4 g/ha,[9],20%
same,pest or weed control at 4483.4 g/ha,[10],20%
same,pest or weed control at 4483.4 g/ha,[11],40%
same,pest or weed control at 4483.4 g/ha,[12],50%
same,pest or weed control at 4483.4 g/ha,[13],20%
same,pest or weed control at 4483.4 g/ha,[14],30%
CCCCS(=O)(=O)c1nnc(N(C)C(=O)NC)s1 [Example 92],pest or weed control at 560.425 g/ha,[1]; 0.5 lb/acre,40%
same,pest or weed control at 1120.85 g/ha,[1]; 1 lb/acre,60%
same,pest or weed control at 2241.7 g/ha,[1]; 2 lb/acre,100%
same,pest or weed control at 4483.4 g/ha,[1],100%
same,pest or weed control at 560.425 g/ha,[2]; 0.5 lb/acre,10%
same,pest or weed control at 1120.85 g/ha,[2]; 1 lb/acre,10%
same,pest or weed control at 2241.7 g/ha,[2]; 2 lb/acre,30%
same,pest or weed control at 4483.4 g/ha,[2],60%
same,pest or weed control at 560.425 g/ha,[15]; 0.5 lb/acre,10%
same,pest or weed control at 1120.85 g/ha,[15]; 1 lb/acre,50%
same,pest or weed control at 2241.7 g/ha,[15]; 2 lb/acre,70%
same,pest or weed control at 4483.4 g/ha,[15],90%
same,pest or weed control at 560.425 g/ha,[3]; 0.5 lb/acre,10%
same,pest or weed control at 1120.85 g/ha,[3]; 1 lb/acre,10%
same,pest or weed control at 2241.7 g/ha,[3]; 2 lb/acre,30%
same,pest or weed control at 4483.4 g/ha,[3],50%
same,pest or weed control at 560.425 g/ha,[4]; 0.5 lb/acre,10%
same,pest or weed control at 1120.85 g/ha,[4]; 1 lb/acre,60%
same,pest or weed control at 2241.7 g/ha,[4]; 2 lb/acre,90%
same,pest or weed control at 4483.4 g/ha,[4],90%
same,pest or weed control at 560.425 g/ha,[5]; 0.5 lb/acre,10%
same,pest or weed control at 1120.85 g/ha,[5]; 1 lb/acre,10%
same,pest or weed control at 2241.7 g/ha,[5]; 2 lb/acre,10%
same,pest or weed control at 4483.4 g/ha,[5],10%
same,pest or weed control at 560.425 g/ha,[6]; 0.5 lb/acre,10%
same,pest or weed control at 1120.85 g/ha,[6]; 1 lb/acre,10%
same,pest or weed control at 2241.7 g/ha,[6]; 2 lb/acre,10%
same,pest or weed control at 4483.4 g/ha,[6],10%
same,pest or weed control at 560.425 g/ha,[7]; 0.5 lb/acre,10%
same,pest or weed control at 1120.85 g/ha,[7]; 1 lb/acre,10%
same,pest or weed control at 2241.7 g/ha,[7]; 2 lb/acre,10%
same,pest or weed control at 4483.4 g/ha,[7],10%
same,pest or weed control at 560.425 g/ha,[8]; 0.5 lb/acre,30%
same,pest or weed control at 1120.85 g/ha,[8]; 1 lb/acre,30%
same,pest or weed control,[8]; 2 lb/acre,90%
same,pest or weed control at 4483.4 g/ha,[8],90%
same,pest or weed control at 560.425 g/ha,[11]; 0.5 lb/acre,100%
same,pest or weed control at 1120.85 g/ha,[11]; 1 lb/acre,100%
same,pest or weed control at 2241.7 g/ha,[11]; 2 lb/acre,100%
same,pest or weed control at 4483.4 g/ha,[11],100%
same,pest or weed control at 560.425 g/ha,[12]; 0.5 lb/acre,100%
same,pest or weed control at 1120.85 g/ha,[12]; 1 lb/acre,100%
same,pest or weed control at 2241.7 g/ha,[12]; 2 lb/acre,100%
same,pest or weed control at 4483.4 g/ha,[12],100%
same,pest or weed control at 560.425 g/ha,[14]; 0.5 lb/acre,70%
same,pest or weed control at 1120.85 g/ha,[14]; 1 lb/acre,80%
same,pest or weed control at 2241.7 g/ha,[14]; 2 lb/acre,90%
same,pest or weed control at 4483.4 g/ha,[14],100%
